Results as given in patent US5773239A, “Mannosidase inhibitors, process for their preparation and their use as therapeutic agents” (Mount Sinai Hospital Corporation., priority 1995, dated 1998).
Where two headings read alike, the source gives them in different places.

Assays:
[1] = tested on: MDAY-D2 tumor cells; assay: L-PHA toxicity assay (inhibition of oligosaccharide processing in cells); format: cell-based, mouse; conditions: for IC50 for inhibition of Golgi oligosaccharide processing, higher / activity as inhibitors of Golgi oligosaccharide processing in viable MDAY-D2 tumor cells: compared to SW; for IC50: Mus musculus, read-out: IC50 for Inhibition of L-PHA Toxicity
Method: MDAY-D2 tumor cells were inoculated into 96 well micro-test plates at 2×10^4 cells/well, and containing serial dilutions of SW or SW analogues in MEM plus 10% FCS. The cells were cultured for 18-20 hr, followed by the addition of L-PHA at 25 μg/ml for an additional 24 hr. Cell proliferation was measured by adding 0.5 μCi/well of ^3 H-thymidine for 3-4 hr, harvesting onto glass fibre disks using a Titertek harvester and the disks were counted in a liquid scintillation counter. The apparent IC50 values for SW and the analogues are the drug concentrations showing 50% protection from L-PHA toxicity; that is 50% ^3 H-thymidine incorporated compared with cells grown in the absence of L-PHA. In experiments using the esterase inhibitor diethyl p-nitrophenyl phosphate, the compound was added to MDAY-D2 cells 4 hr prior to the α-mannosidase inhibitors and was present through-out the experiment.

[2] = target: T1, Jack Bean α-mannosidase (Canavalia ensiformis, UniProt C0HJB3); assay: Inhibition of Jack Bean α-mannosidase; format: biochemical
T1 construct: purchased Sigma
T1 sequence (C0HJB3 1-981): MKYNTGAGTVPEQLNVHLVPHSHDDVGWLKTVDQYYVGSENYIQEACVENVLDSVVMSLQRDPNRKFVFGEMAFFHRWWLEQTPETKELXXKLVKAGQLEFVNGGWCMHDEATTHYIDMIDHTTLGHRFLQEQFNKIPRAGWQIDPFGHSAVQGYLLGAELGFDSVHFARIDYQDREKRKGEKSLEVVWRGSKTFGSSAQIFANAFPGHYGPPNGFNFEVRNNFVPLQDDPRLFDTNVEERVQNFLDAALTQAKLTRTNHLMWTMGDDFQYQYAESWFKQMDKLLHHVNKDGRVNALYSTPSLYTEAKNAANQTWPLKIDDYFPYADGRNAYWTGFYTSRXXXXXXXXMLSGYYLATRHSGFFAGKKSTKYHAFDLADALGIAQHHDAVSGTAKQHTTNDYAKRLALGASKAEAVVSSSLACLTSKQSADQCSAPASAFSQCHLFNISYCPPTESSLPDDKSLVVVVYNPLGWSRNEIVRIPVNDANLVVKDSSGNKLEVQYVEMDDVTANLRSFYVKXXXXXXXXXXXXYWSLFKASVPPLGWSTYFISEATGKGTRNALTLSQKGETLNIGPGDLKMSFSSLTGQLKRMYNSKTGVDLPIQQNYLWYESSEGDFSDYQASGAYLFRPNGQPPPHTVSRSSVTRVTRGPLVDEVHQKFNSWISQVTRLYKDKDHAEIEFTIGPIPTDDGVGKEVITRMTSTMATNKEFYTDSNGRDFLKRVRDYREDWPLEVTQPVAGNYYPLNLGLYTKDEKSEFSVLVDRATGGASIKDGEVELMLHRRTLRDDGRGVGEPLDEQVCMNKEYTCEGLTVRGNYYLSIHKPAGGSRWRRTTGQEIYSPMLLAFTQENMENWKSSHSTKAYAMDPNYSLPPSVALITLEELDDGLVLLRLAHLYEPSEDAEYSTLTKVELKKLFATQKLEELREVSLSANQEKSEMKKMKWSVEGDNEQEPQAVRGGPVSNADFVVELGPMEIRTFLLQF
Method: Jack Bean α-mannosidase (Sigma, 38 U/ml) was diluted 1/800, 10 μl was added to each well and the plates were incubated for 20 min at 37° C. The reaction was stopped by the addition of 150 μl of 0.5M sodium carbonate and formation of p-nitrophenol was measured with a plate set at 405 nm.

[3] = target: T2, MDAY-D2 lysosomal α-mannosidases (Mus musculus, UniProt O09159); assay: Inhibition of lysosomal α-mannosidases in MDAY-D2 tumor cell lysate; format: biochemical
T2 construct: 10 μl MDAY-D2 tumor cell lysate; endogenous in cells; host or cells: MDAY-D2 tumor cells (lysate)
T2 sequence (O09159 50-1013): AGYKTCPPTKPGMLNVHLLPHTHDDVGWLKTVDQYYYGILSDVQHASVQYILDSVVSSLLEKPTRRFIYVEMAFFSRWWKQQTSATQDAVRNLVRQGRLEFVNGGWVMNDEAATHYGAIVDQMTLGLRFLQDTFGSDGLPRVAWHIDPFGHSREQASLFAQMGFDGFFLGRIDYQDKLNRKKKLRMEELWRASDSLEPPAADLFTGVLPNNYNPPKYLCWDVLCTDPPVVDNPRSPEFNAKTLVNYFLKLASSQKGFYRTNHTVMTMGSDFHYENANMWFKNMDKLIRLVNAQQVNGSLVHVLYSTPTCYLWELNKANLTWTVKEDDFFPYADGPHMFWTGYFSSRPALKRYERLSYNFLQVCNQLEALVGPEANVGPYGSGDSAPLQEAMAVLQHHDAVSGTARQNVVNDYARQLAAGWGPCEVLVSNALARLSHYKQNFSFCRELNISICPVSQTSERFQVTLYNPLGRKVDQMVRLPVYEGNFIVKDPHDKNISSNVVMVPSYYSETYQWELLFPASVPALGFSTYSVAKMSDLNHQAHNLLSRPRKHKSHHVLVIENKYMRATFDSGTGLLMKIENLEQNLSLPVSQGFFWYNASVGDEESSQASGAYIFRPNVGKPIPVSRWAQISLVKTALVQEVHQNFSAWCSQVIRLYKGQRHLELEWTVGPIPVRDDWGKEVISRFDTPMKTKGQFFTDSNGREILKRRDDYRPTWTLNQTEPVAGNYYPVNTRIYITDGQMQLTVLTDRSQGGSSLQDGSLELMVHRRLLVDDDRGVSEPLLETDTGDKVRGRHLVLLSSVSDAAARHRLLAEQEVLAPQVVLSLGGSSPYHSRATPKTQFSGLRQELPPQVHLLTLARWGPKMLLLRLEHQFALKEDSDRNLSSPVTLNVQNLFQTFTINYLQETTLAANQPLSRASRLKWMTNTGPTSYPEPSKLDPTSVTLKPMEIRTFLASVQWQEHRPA
Method: SW and analogues were serially diluted into a volume of 75 μl in 96 well Elisa plates followed by the addition of 37.5 μl of 100 mM sodium acetate pH 5.0 and 37.5 μl of 10 mM p-nitrophenyl α-D-mannospyranoside. Jack Bean α-mannosidase (Sigma, 38 U/ml) was diluted 1/800, 10 μl was added to each well and the plates were incubated for 20 min at 37° C. The reaction was stopped by the addition of 150 μl of 0.5M sodium carbonate and formation of p-nitrophenol was measured with a plate set at 405 nm. The effects of SW and analogues on cellular acid α-mannosidases (ie. lysosomal enzyme) were measured using the same assay where Jack Bean α-mannosidase was replaced by 10 μl MDAY-D2 tumor cell lysate (10 μg/μl of protein) prepared in 0.9% NaCl, 50 mM Tris pH 7.0, 0.5% Triton X-100 and 1.0 mM diethyl p-nitrophenyl phosphate.

[4] = MDAY-D2 tumor cells, L-PHA 25 μg/ml, 50% protection by 3H-thymidine incorporation
[5] = p-nitrophenyl α-D-mannopyranoside, pH 5.0, 20 min 37° C., read-out: IC50 for inhibition of J.B. α-mannosidase
[6] = MDAY-D2 tumor cell lysate, pH 5.0, read-out: IC50 for inhibition of MDAY-D2 α-mannosidase

SMILES | IC50 for inhibition of Golgi oligosaccharide processing, higher ([1]; MDAY-D2 tumor cells) | IC50 [1, 4] [µM] | IC50 [2, 5] [µM] | IC50 [3, 6] [µM] | activity as inhibitors of Golgi oligosaccharide processing in viable MDAY-D2 tumor cells [1] | IC50 [2] [µM] | reduction of inhibitor activity / greater IC50 for α-mannosidase in vitro compared to SW ([2]; compared to SW) [fold] | less active than SW in the Jack Bean α-mannosidase assay ([2]; compared to SW) [times] | IC50 ([1]; MDAY-D2, 3 h) [µM] | IC50 [3] [µM]
O=C(OC1CN2CCCC(O)C2C1O)c1ccccc1 (stereo not shown) [2-benzoyloxy-SW] | at least 10 times | 1.8 | 350 | 720 | – | – | – | – | – | –
CCCC(=O)OC1CN2CCCC(O)C2C1O (stereo not shown) [2-butanoyloxy-SW] | – | 0.23 | – | 35 | retained full activity | 123 | 300 | – | – | –
CCCCCCCC(=O)OC1CN2CCCC(O)C2C1O (stereo not shown) [2-octanoyloxy-SW] | – | 0.23 | 123 | 35 | retained full activity | – | 300 | – | – | –
O=C(OC1CN2CCCC(O)C2C1O)c1ccc([N+](=O)[O-])cc1 (stereo not shown) [2-p-nitrobenzoyloxy-SW] | – | 0.23 | 123 | 35 | retained full activity | – | 300 | – | – | –
Cc1ccc(C(=O)O[C@@H]2CN3CCC[C@@H](O)[C@@H]3[C@@H]2O)cc1 [2-toluoyloxy-SW] | at least 10 times | 3.4 | 350 | 69 | – | – | – | – | – | –
OC1CN2C[C@@H](O)[C@@H](O)[C@H]2[C@H](O)C1O (stereo partly shown) [6,7-dihydroxy-SW] | – | > 5 | 50 | 10 | – | – | – | 100 | – | –
CCCCCCCCCCCCCC(=O)OC1CCCN2CC(O)C(O)C12 (stereo not shown) [8-myristinoyloxy-SW] | at least 10 times | > 2.5 | > 500 | > 500 | – | – | – | – | – | –
CCCCCCCCCCCCCCCC(=O)OC1CCCN2CC(O)C(O)C12 (stereo not shown) [8-palmitoyloxy-SW] | at least 10 times | > 2.5 | 240 | 500 | – | – | – | – | – | –
O[C@H]1[C@H]2[C@H](O)CCCN2C[C@H]1O [SW, Swainsonine, reference compound] | – | – | – | – | – | – | – | – | 0.2 | 0.5
